Calls of active or inactive are those of the source.
Columns and labels:
[1] = molecular target: G2/mitotic-specific cyclin-B1 (Homo sapiens, UniProt P14635); assay: Counterscreen assay for inhibitors of Wee1 degradation: dose response cell-based assay to identify inhibitors of cyclin B degradation. [Related pubchem assays: 1410, 1321 ]; assay type: functional
Wee1-like protein kinase = Wee1-like protein kinase (Homo sapiens, UniProt P30291); assay: Dose Response Cell-based Assay for Inhibitors of Wee1 Degradation. [Related pubchem assays: 1410, 1321 ]; assay type: functional
[2] = alpha-synuclein stem-loop translation blockers – luminescence, H4 neuroglioblastoma cells, dose confirmation, confirmation (AID 2454); assay type: functional, cell-based;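 further: H4 neuroglioblastoma cells carrying an alpha-synuclein 5'UTR luciferase reporter; potency for inhibition of the luciferase signal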
[3] = luciferase reporter signal reduction – luminescence, H4-C neuroglioblastoma cells, dose response (AID 2458); assay type: functional, cell-based;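 further: H4 neuroglioblastoma cells stably carrying a luciferase reporter gene fusion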
[4] = alpha-synuclein stem-loop luciferase translation blockers – H4 neuroglioma cells, luminescence, confirmation (AID 1988); assay type: functional, cell-based
[5] = rise of 2N DNA cells, HeLa – IC50, dose response (AID 1117349); assay type: functional, cell-based
cells [6] = assay type: functional, cell-based
cells [7] = assay type: functional, cell-based; remark: listed apart in the source
[8] = rise of 4N DNA cells, HeLa – IC50, dose response (AID 1117351); assay type: functional, cell-based
[9] = Luminescence Cell-Based Dose Response HTS to Identify Inhibitors of 5'UTR Stem-Loop Driven Prion Protein mRNA Translation in H4 Neuroglioblastoma Cells. [Related pubchem assays: 1827 (Project Summary), 1813 (Primary HTS)]; assay type: functional
[10] = non-specific 3'UTR reporter inhibition in Clone20-Shn3RL – cell-based, Renilla luciferase, cherry-picked, counter-screen for Shn3 inhibitor project, dose response (AID 624133); assay type: functional
[11] = molecular target: Sphingosine 1-phosphate receptor 4 (Homo sapiens, UniProt O95977); assay: Fluorescence dose response cell-based high throughput screening assay for antagonists of the Sphingosine 1-Phosphate Receptor 4 (S1P4). [Related pubchem assays: 1524 (Confirmation in triplicates.), 1510 (Primary screen.)]; assay type: functional
[12] = reduction of Shn3 3'UTR-driven luciferase in osteoblasts – cell-based, Clone20 osteoblasts, firefly luciferase, cherry-picked, dose response (AID 624132); assay type: functional;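 further: firefly luciferase luminescence from reporter carrying the Shn3 3'UTR in osteoblasts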
CHO = CHO cell viability loss, potency – luminescence, cytotoxicity control for TLR9-MyD88 binding inhibitor project, dose response (AID 588339); assay type: functional, cell-based, hamster; settings: Cricetulus griseus;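 further: CHO cells stably coexpressing TLR9 and MyD88 fusions from primary screen; compound exposure lasted 48 hours before viability readout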
[13] = luciferase reporter signal suppression in cells – H4 neuroglioma cells, luminescence, dose response (AID 1990); assay type: functional, cell-based
[14] = microbe, parasite or virus in culture; assay type: functional; settings: Mycobacterium tuberculosis
[15] = molecular target: Sphingosine 1-phosphate receptor 1 (Homo sapiens, UniProt P21453); assay type: functional;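 further: Tango beta-arrestin reporter U2OS cells stimulated with S1P near its EC80; inhibitor potency meaning antagonism of receptor activation by the natural agonist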
[16] = molecular target: Luciferin 4-monooxygenase (Photinus pyralis, UniProt P08659); assay: Counter Screen for Luciferase-based Assay Positives. [Related pubchem assays: 620, 618, 411 ]
[17] = molecular target: T1, Heat shock factor protein 1 (Mus musculus, UniProt P38532); assay: decrease of HSF1-responsive luciferase luminescence – cell-based, NIH3T3, dose retest, confirmation (AID 2382); assay type: functional;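 further: NIH3T3 fibroblasts with HSF1-driven luciferase reporter stressed by proteasome inhibitor MG132; luminescence from HSF1-driven luciferase expression after 8 hours of MG132 stress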
T1 sequence (P38532 whole entry): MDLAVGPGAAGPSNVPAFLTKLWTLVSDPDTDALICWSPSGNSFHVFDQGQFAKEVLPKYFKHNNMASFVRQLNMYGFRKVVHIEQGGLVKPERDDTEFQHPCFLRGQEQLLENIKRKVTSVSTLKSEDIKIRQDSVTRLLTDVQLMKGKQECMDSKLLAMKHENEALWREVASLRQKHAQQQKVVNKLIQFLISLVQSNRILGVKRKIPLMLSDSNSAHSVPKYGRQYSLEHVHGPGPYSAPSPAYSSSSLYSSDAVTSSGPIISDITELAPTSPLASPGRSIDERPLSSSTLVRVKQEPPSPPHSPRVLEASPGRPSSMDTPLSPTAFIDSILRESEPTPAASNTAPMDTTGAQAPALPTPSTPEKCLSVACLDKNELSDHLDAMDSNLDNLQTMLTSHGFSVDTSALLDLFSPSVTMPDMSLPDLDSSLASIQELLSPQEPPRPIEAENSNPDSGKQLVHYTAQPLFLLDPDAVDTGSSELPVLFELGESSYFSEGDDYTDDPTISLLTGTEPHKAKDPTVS

[18] = molecular target: T2, High affinity choline transporter 1 (Homo sapiens, UniProt Q9GZV3); assay: human choline transporter blockers, potency – cell-based, 5-point CRC, membrane potential dye, dose response (AID 504840); assay type: functional
T2 sequence (Q9GZV3 whole entry): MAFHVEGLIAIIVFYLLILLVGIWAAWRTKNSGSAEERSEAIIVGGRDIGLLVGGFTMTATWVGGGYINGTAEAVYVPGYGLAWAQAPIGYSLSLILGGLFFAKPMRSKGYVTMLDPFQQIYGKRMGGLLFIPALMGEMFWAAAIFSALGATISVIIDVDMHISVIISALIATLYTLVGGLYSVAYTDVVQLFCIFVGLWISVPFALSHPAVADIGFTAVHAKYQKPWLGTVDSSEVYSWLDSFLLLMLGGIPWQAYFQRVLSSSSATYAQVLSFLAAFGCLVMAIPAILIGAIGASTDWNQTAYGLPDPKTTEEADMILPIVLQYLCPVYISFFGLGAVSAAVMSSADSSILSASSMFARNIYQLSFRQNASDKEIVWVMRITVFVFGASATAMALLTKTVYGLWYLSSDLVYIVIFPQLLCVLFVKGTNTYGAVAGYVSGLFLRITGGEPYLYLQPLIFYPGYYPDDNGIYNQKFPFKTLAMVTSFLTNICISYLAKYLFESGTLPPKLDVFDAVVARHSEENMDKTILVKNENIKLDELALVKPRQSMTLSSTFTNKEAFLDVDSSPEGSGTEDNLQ

HT-1080 = assay: HT1080 cell viability loss – fluorescence readout (AID 620); assay type: functional, cell-based; settings: Homo sapiens
[19] = molecular target: T2, High affinity choline transporter 1; assay: human choline transporter blockers, potency – cell-based, 10-point CRC, membrane potential dye, dose response (AID 588401); assay type: functional;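 further: membrane potential dye fluorescence of choline-evoked depolarization via CHT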
[20] = loss of viability in HepG2 cells – cell-based, CellTiter-Glo, cherry-picked, cytotoxicity control for Shn3 inhibitor project, dose response (AID 624134); assay type: functional
Protein RecA = molecular target: T3, Protein RecA (Mycobacterium tuberculosis, UniProt P9WHJ3); assay: Fluorescence Cell-Free Homogeneous Dose Retest to Identify Inhibitors of RecA-Intein Splicing Activity. [Related pubchem assays (depositor defined):AID2097, AID2223, AID489010, AID492950]; assay type: functional
T3 sequence (P9WHJ3 whole entry): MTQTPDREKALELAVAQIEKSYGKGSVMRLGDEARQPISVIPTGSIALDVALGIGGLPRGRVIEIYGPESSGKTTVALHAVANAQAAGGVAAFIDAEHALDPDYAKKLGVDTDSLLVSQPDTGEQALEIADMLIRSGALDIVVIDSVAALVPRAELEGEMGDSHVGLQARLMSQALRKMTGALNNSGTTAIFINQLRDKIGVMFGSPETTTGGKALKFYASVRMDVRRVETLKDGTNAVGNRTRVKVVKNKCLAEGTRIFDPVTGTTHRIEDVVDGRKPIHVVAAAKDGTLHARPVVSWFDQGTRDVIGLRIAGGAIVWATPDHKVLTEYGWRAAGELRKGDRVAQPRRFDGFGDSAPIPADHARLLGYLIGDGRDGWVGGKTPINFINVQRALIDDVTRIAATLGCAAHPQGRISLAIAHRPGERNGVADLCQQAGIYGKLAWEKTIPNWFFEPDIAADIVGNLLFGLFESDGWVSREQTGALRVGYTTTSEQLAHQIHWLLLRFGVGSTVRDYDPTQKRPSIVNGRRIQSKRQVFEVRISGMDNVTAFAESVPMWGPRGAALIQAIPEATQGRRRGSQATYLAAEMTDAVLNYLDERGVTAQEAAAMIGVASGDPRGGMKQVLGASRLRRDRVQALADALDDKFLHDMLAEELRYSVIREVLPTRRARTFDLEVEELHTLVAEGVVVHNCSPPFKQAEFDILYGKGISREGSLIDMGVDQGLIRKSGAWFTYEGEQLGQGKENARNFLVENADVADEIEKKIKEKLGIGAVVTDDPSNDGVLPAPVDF

Estrogen receptor = molecular target: T4, Estrogen receptor (Homo sapiens, UniProt P03372); assay: blockers of SRC-3 recruitment to ERα – biochemical, ELISA, streptavidin-HRP readout, orthogonal assay, confirmation (AID 1079)
T4 sequence (P03372 whole entry): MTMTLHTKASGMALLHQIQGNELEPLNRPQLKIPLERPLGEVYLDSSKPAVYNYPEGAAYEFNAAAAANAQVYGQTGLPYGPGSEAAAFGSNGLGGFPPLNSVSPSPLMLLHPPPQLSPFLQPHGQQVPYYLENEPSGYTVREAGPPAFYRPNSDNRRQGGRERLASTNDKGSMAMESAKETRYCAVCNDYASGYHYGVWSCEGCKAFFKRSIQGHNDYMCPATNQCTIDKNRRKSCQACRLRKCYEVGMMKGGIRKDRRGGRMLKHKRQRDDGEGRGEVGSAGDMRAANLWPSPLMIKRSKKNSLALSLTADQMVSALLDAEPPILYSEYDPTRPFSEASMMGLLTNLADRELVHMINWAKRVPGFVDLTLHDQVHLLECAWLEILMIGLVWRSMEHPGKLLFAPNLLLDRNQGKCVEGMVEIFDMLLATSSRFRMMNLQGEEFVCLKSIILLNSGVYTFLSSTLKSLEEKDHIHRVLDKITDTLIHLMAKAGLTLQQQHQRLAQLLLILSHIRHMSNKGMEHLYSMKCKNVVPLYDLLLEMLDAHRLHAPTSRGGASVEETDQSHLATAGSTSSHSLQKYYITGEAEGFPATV

Cysteine protease ATG4B = Cysteine protease ATG4B (Homo sapiens, UniProt Q9Y4P1); assay type: functional;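 further: Fluorescence-based dose-response confirmation assay measuring inhibition of ATG4B activity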
[21] = A cytotoxicity screen of small molecule inhibitors of the PhoP region in Salmonella typhi identified in the primary screen. [Related pubchem assays: 1850, 1864, 1985 ]; assay type: functional
Phospholipase A2 = Phospholipase A2 (Homo sapiens, UniProt P04054); assay type: functional;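 further: confirmatory dose-response counterscreen on phospholipase A2, testing hits that came from an ultra-high-throughput screen for ATG4B inhibitors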
[22] = molecular target: Mothers against decapentaplegic homolog 3 (Homo sapiens, UniProt P84022); assay: blockers of Smad3 complex formation in lysate – cell lysate, secondary confirmation, chemiluminescent ELISA, HEK293 lysate, dose response (AID 1058); assay type: functional
Streptococcus [23] = assay: Luminescence Microorganism-Based Dose Response Follow up to Identify Compounds Cytotoxic to Streptococcus. [Related pubchem assays: 1677 (Project Summary), 1915, 1914, 1902 (Retest at Dose), 1900 (Counter Screen), 1662 (Primary HTS)]; assay type: functional, organism-based
Streptokinase A = molecular target: T5, Streptokinase A (Streptococcus pyogenes serotype M1, UniProt P10520); assay: viability-normalized secreted streptokinase activity reduction – plasminogen activation absorbance, OD405, dose response (AID 1914); assay type: functional, Streptococcus pyogenes M1 GAS;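 further: secreted streptokinase activity via plasminogen activation per viability signal from cell pellet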
T5 sequence (P10520 whole entry): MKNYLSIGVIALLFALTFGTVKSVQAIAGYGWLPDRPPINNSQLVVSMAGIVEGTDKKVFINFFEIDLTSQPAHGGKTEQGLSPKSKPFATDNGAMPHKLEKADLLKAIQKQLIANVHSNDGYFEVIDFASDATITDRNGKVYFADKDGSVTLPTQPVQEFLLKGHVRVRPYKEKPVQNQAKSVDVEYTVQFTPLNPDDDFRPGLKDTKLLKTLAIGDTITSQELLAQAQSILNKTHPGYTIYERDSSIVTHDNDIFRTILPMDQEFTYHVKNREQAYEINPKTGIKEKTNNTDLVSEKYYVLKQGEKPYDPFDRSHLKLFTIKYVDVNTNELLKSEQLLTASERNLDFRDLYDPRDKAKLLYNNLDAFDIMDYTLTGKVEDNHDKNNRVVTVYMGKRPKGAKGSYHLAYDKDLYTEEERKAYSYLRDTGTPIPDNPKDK

[24] = test system: Streptococcus sp. 'group A'; assay: Streptococcus pyogenes SK(-)GAS viability under kanamycin – luminescence, BacTiterGlo, confirmation, counter-screen for streptokinase expression inhibitor project, dose response (AID 1900); assay type: functional, organism-based
Streptococcus [25] = assay: GAS UMAA2166 growth inhibition – luminescence, BacTiterGlo, counter-screen for streptokinase expression inhibitor project, dose response (AID 1915); assay type: functional, organism-based;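 further: potency for reduction of bacterial viability or growth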

Sphingosine 1-phosphate receptor 1, sequence (P21453 whole entry): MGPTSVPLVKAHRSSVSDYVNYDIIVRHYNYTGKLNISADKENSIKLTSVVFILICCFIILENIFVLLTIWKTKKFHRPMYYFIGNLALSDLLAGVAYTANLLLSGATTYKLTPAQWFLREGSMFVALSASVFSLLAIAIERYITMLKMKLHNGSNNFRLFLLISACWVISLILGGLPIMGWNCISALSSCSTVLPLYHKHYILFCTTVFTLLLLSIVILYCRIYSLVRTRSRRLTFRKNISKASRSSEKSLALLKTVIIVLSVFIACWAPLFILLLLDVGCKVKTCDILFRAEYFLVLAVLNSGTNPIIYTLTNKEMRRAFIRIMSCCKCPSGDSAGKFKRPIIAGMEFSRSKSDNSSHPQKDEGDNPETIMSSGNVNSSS
Wee1-like protein kinase, sequence (P30291 whole entry): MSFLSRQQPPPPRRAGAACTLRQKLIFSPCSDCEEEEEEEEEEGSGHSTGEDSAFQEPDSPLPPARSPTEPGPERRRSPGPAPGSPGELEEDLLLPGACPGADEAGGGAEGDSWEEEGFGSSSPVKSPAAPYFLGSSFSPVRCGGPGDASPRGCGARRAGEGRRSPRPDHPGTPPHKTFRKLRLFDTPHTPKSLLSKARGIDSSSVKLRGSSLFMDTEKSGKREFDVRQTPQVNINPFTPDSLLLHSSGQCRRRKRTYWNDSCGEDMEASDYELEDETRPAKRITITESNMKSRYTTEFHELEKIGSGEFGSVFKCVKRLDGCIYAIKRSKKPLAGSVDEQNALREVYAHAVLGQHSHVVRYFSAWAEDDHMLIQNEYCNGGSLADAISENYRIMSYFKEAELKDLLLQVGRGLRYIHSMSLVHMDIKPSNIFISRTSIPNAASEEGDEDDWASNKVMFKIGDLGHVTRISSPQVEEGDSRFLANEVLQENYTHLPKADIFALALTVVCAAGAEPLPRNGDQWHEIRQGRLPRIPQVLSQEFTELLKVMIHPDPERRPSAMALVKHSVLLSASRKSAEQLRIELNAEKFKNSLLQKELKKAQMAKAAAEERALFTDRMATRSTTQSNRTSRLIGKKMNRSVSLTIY
Luciferin 4-monooxygenase, sequence (P08659 whole entry): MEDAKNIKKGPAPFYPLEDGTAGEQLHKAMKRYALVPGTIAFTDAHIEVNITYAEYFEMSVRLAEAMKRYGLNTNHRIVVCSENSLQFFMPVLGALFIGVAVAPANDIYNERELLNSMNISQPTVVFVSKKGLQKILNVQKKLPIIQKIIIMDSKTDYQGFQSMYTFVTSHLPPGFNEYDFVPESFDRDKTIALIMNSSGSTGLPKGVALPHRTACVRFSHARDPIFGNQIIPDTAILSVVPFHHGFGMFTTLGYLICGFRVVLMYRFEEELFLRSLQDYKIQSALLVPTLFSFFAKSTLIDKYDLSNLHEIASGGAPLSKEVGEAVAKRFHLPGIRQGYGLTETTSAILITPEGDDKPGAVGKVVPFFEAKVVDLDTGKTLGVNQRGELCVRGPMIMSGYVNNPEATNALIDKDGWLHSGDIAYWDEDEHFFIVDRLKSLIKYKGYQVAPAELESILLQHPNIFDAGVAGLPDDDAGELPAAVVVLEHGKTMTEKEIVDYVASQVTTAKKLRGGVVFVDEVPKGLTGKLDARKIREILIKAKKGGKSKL
Phospholipase A2, sequence (P04054 whole entry): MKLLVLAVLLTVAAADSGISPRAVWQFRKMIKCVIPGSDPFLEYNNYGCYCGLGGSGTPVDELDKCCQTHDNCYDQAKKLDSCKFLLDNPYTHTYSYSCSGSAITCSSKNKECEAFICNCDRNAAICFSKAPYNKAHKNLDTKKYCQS
Mothers against decapentaplegic homolog 3, sequence (P84022 whole entry): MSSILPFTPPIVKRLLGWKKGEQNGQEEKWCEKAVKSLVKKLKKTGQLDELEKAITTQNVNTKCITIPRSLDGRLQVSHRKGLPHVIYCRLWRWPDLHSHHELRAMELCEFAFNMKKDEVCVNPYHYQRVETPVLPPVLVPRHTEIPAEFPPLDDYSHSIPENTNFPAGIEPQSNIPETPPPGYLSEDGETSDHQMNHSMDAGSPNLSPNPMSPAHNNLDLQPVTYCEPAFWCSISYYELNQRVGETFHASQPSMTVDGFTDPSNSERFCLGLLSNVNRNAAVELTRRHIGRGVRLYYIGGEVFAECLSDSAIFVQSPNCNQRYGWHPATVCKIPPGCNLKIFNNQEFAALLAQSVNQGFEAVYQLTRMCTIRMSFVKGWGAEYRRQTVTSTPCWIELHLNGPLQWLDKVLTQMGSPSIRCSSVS
Cysteine protease ATG4B, sequence (Q9Y4P1 whole entry): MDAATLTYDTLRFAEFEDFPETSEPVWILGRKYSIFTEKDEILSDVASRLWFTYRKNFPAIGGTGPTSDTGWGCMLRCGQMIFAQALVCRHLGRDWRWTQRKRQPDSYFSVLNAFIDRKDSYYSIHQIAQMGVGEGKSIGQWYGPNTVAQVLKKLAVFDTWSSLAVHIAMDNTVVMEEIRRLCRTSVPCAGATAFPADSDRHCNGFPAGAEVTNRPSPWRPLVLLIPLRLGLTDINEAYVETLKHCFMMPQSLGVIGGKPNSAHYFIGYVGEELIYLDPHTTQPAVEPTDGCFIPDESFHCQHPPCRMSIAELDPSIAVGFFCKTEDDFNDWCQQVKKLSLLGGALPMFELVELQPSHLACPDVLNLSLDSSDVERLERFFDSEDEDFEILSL
Sphingosine 1-phosphate receptor 4, sequence (O95977 whole entry): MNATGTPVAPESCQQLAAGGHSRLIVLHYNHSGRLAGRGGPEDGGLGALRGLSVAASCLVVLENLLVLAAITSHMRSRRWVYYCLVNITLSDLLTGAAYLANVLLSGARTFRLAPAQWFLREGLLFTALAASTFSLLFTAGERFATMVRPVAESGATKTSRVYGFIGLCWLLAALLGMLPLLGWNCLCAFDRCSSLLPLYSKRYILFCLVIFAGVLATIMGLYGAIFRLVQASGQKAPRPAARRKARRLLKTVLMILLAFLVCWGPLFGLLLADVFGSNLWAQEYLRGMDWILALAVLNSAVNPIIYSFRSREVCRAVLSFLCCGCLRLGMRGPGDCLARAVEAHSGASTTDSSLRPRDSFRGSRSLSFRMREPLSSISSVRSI
G2/mitotic-specific cyclin-B1, sequence (P14635 whole entry): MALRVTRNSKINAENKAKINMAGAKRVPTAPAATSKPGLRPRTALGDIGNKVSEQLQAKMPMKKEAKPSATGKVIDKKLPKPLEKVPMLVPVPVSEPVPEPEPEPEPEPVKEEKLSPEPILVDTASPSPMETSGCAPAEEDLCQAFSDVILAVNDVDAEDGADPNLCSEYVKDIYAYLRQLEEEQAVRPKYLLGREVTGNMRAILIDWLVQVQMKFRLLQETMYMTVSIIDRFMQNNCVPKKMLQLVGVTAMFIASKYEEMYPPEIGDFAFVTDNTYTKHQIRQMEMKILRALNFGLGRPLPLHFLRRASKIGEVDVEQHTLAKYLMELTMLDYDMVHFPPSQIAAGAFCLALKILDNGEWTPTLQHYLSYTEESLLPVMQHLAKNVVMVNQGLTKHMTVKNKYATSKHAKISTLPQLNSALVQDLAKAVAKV

Cn1cccc1/C=C1\SC(Nc2ccccc2)=NC1=O
EC50 [1]: > 5.53 µM (active)
EC50 (Wee1-like protein kinase): > 49.7 µM (not active)

COC(=O)Nc1nc2cc(C(=O)c3cccs3)ccc2[nH]1 [NOCODAZOLE]
EC50 [2]: 0.183 µM (active)
EC50 [3]: 0.195 µM (active)
EC50 [4]: < 0.1 µM (active)
IC50 [5]: 0.0174 µM (active)
IC50 (cells [6]): > 67.5 µM (inactive)
EC50 (cells [7]): 0.203 µM (active)
IC50 [8]: 0.0176 µM (active)
EC50 [9]: < 0.1 µM (active)

CN1/C(=C/C(=O)c2nc(S(C)(=O)=O)ncc2Cl)C(C)(C)c2ccccc21
AC50 [10]: 8.57 µM (active)
EC50 [4]: 9.18 µM (active)
IC50 [11]: 1.31 µM (active)
AC50 [12]: 5.21 µM (active)
IC50 (CHO): 2.72 µM (active)
EC50 [13]: > 120 µM (not active)
CC50 [14]: 19.5 µM (active)
IC50 [15]: 11.9 µM (not active)
EC50 [16]: 1.14 µM (active)
EC50 [17]: 4.37 µM (active)
IC50 [18]: 4.81 µM (active)
EC50 (HT-1080): 17.8 µM (active)
EC50 [9]: 10.1 µM (active)
IC50 [19]: 3.81 µM (active)
AC50 [20]: 12.2 µM (active)
EC50 (Protein RecA): 1.81 µM (active)

O=C(CCCCCn1c(=S)[nH]c2ccccc2c1=O)N1CCC(Nc2ccccc2)CC1
IC50 (Estrogen receptor): 0.18 µM (not active)

O=c1c2ccccc2nc(-c2ccoc2)n1CCc1ccccc1
IC50 (Cysteine protease ATG4B): 14.3 µM (active)
EC50 [21]: > 50 µM (active)
IC50 (Phospholipase A2): 13.9 µM (active)

Oc1ccccc1C(c1cc2c(cc1O)OCO2)N1CCOCC1 (stereo not given)
IC50 [22]: 6.96 µM (not active)

Cc1cc(C(=O)OC(C(=O)Nc2cccc(C(F)(F)F)c2)c2ccccc2)c(C)o1 (stereo not given)
EC50 (Streptococcus [23]): > 500 µM (not active)
EC50 (Streptokinase A): 4.11 µM (active)
EC50 [24]: 22.6 µM (active)
EC50 (Streptococcus [25]): > 150 µM (not active)

Reference: ChEMBL document CHEMBL1201862, “PubChem BioAssay data set” (2004)
